Consider eleven compounds from US8846730B2, “Compounds as cannabinoid receptor ligands” (priority 2008, dated 2014).

Test [1] has as its system ovariectomy-induced bone loss. The conditions noted are these: mice, model for post-menopausal osteoporosis; cited from earlier work.
The subject of test [2] is rat formalin model of persistent pain. Conditions: cited from earlier work.
Test [3] deals with animal models of pain. The conditions noted are these: acute thermal, persistent, inflammatory and neuropathic pain models; cited from earlier work.
For test [4], the system named is atherosclerotic lesions. The conditions noted are these: low doses, apolipoprotein E knockout mice; cited from earlier work.
Test [5] relates to rodent models of pain. Conditions: neuropathic, incisional, chronic and acute inflammatory pain; cited from earlier work.
Test [6] concerns the target human CB2 receptors (Homo sapiens (Human), UniProt P34972). The experiment in a line: human CB2 radioligand binding assay ([3H]CP 55,940 competition). In a few lines: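 Displacement of 0.5 nM [3H]CP 55,940 over 0.01 nM-10 μM test compound, measured on human CB2 membranes from stably transfected HEK293 cells. Incubation 90 min at 30 °C in Tris/EDTA/MgCl2/BSA, pH 7.4, then filter-bound radioactivity counted; 10 μM unlabeled CP 55,940 defined nonspecific binding.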

Test [7] addresses rat CB2 receptors (Rattus norvegicus (Rat), UniProt Q9QZN9). Briefly: rat CB2 radioligand binding assay ([3H]CP 55,940 competition). Conditions: HEK293 membranes, 0.5 nM [3H]CP 55,940. In a few lines:
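Membranes from HEK293 cells stably expressing rat CB2 (20 μg protein/well) were incubated 45 min at 30 °C with 0.5 nM [3H]CP 55,940 and five displacer concentrations, in pH 7.4 Tris buffer with 0.5 mg/mL BSA. Bound radioactivity was measured by filtration. Nonspecific binding was defined with 10 μM unlabeled CP 55,940.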

Test [8] concerns the target rat CB2 receptors (HEK cells) (Rattus norvegicus (Rat), UniProt Q9QZN9). The experiment in a line: rat CB2 cyclase functional assay (HitHunter cAMP). The format is cell-based.
Test [9] concerns the target rat CB1 receptors (HEK cells) (Rattus norvegicus (Rat), UniProt P20272). The experiment in a line: rat CB1 cyclase functional assay (HitHunter cAMP). The format is cell-based.
The test system of test [10] is microglial. Conditions: in vitro; cited from earlier work.
The mark [11] stands for this setting: HEK293 membranes, 0.5 nM [3H]CP 55,940, read-out: human CB2 (Ki).
Setting [12] is: HEK cells, forskolin 18 μM, read-out: rat CB2 cyclase (EC50).

Read-outs that look alike come from different tables or passages of the source. Bounds are passed on as bounds.

Chain of human CB2 receptors (P34972 whole entry): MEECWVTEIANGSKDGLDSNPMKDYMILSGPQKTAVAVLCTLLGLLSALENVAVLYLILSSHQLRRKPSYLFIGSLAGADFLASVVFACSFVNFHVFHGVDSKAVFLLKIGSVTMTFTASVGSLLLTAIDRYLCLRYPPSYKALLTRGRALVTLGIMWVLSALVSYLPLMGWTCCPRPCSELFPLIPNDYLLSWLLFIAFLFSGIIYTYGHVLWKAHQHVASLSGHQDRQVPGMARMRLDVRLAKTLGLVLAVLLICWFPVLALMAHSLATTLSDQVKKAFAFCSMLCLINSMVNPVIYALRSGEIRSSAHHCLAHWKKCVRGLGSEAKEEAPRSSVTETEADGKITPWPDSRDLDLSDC
Chain of rat CB1 receptors (HEK cells) (P20272 whole entry): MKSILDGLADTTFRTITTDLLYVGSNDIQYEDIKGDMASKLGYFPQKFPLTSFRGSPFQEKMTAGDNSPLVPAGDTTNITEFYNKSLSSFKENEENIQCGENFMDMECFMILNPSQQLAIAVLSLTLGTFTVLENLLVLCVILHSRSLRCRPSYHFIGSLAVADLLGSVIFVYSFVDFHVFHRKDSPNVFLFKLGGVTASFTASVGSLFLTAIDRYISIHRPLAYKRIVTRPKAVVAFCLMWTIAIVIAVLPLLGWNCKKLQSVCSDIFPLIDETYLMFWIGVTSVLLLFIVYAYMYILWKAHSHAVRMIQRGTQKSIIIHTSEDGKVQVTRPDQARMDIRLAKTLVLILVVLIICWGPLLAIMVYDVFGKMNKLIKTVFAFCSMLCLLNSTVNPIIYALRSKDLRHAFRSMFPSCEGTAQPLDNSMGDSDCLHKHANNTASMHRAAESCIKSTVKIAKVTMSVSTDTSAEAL

In the case of SR144528, the “effect on osteoclast activity and bone loss” value in [1] is “inhibit osteoclast activity and reverse ovariectomy-induced bone loss”.

Turning to `CCCCCCC(C)(C)c1cc(OC)c([C@@H]2C=C(CO)[C@@H]3C[C@H]2C3(C)C)c(OC)c1` [HU-308], in test [2], the antinociceptive response result was “elicits an antinociceptive response”.

With `CN1CCCCC1Cn1cc(C(=O)c2cc([N+](=O)[O-])ccc2I)c2ccccc21` (centres unmarked) [AM-1241], the analgesic efficacy result in [3] is “robust analgesic efficacy”.

As to (−)-Δ^9-Tetrahydrocannabinol [THC], the “effect on progression of atherosclerotic lesions” value in test [4] is recorded as “slowed the progression of atherosclerotic lesions”.

`COc1ccc2c(c1)c(CCN1CCOCC1)c(C)n2C(=O)c1cccc(Cl)c1Cl` [GW405833]: the “efficacy in pain models” value in test [5] is “efficacious”.

In the case of `CN1C[C@@H](F)C[C@H]1COc1ccc(C(F)(F)F)cc1C(=O)/N=c1\sc(C(C)(C)C)cn1C[C@H]1CCCO1` [Example 53, N-[(2Z)-5-tert-butyl-3-[(2R)-tetrahydrofuran-2-ylmethyl]-1,3-thiazol-2(3H)-ylidene]-2-{[(2S,4S)-4-fluoro-1-methylpyrrolidin-2-yl]methoxy}-5-(trifluoromethyl)benzamide], the Ki in test [6] (setting [11]) is 3 nM; in [7] it was 3.6 nM. Further, the half-maximal effective concentration (EC50) in test [8] (setting [12]) stood at 0.12 nM; in test [9] it was 1130 nM.

Take `CC(C)(C)c1cn(C[C@H]2CCCO2)/c(=N/C(=O)c2cc(C(F)(F)F)ccc2OCc2cccnc2)s1` [Example 21, N-[(2Z)-5-tert-butyl-3-[(2R)-tetrahydrofuran-2-ylmethyl]-1,3-thiazol-2(3H)-ylidene]-2-(pyridin-3-ylmethoxy)-5-(trifluoromethyl)benzamide]: the Ki in test [6] (setting [11]) is 13 nM; in test [7] it was 10 nM. Also, the EC50 stood at 0.21 nM in [8] and 6220 nM in test [9].

Consider `CC(COc1ccc(C(F)(F)F)cc1C(=O)/N=c1\sc(C(C)(C)C)cn1C[C@H]1CCCO1)=NOC1CCCCO1` (stereo partly drawn) [Example 63, N-[(2Z)-5-tert-butyl-3-[(2R)-tetrahydrofuran-2-ylmethyl]-1,3-thiazol-2(3H)-ylidene]-2-({2-[(tetrahydro-2H-pyran-2-yloxy)imino]propyl}oxy)-5-(trifluoromethyl)benzamide], for which the Ki is 25 nM in test [6] and 6.6 nM in test [7]. In addition, the results for the concentration giving a half-maximal response (EC50) in test [8] (setting [12]) and in [9] were 2.15 nM and above 27000 nM, respectively.

Regarding `CC(C)(C)c1cn(C[C@H]2CCCO2)/c(=N/C(=O)c2cc(C(F)(F)F)ccc2OCc2cnccn2)s1` [Example 19, N-[(2Z)-5-tert-butyl-3-[(2R)-tetrahydrofuran-2-ylmethyl]-1,3-thiazol-2(3H)-ylidene]-2-(pyrazin-2-ylmethoxy)-5-(trifluoromethyl)benzamide], the Ki in test [6] (setting [11]) and in test [7] was 5 nM each time. Besides, the results for the EC50 in test [8] (setting [12]) and in test [9] were 0.41 nM and 3390 nM, respectively.

With `CCCC(C)(C)c1ccc2c(c1)OC(C)(C)[C@@H]1CC=C(C)C[C@@H]21` [JWH-133], the “effect on β-amyloid-induced microglial activation and neurotoxicity” value in [10] is “abrogated β-amyloid-induced microglial activation and neurotoxicity”.

As for `CN1CCC[C@H]1COc1ccc(C#N)cc1C(=O)/N=c1\sc(C(C)(C)C)cn1C[C@H]1CCCO1` [Example 59, N-[(2Z)-5-tert-butyl-3-[(2R)-tetrahydrofuran-2-ylmethyl]-1,3-thiazol-2(3H)-ylidene]-5-cyano-2-{[(2S)-1-methylpyrrolidin-2-yl]methoxy}benzamide], the Ki in test [6] (setting [11]) stood at 43 nM; in [7], 9.4 nM. Moreover, the values for the EC50 in [8] (setting [12]) and in test [9] were 0.13 nM and 2270 nM, respectively.
